For 3 molecules, MIC and ED50 results are on record in patent US5143911A, “Antibiotic C-3 di-hydroxyphenyl substituted cephalosporin compounds, compositions and method of use thereof” (Bristol-Myers Squibb Company, priority 1990, dated 1992).

≈ marks a conversion by molar mass, not a printed value.

The test system of test [1] is Penicillin (PC)sensitive S. (5 strains). The test is described as follows: MIC, two-fold serial agar dilution, Mueller-Hinton agar (geometric mean, group Gp-Ia). Type of test: cell-based, S. aureus. The settings on record: Staphylococcus aureus. On the procedure:
(§1) For a primary evaluation of some representative compounds of this invention, minimum inhibitory concentrations (MIC's) were determined against 32 strains of test organisms by two-fold serial agar dilution method in Mueller-Hinton agar.
Gp-Ia: Penicillin (PC)sensitive S.
(In agar dilution, organisms are placed on agar that contains the substance at set levels.)

The test system of another test is PCresistant S. aureus. Kind of test: MIC, two-fold serial agar dilution, Mueller-Hinton agar (geometric mean, group Gp-Ib). Type of test: cell-based. The settings on record: Staphylococcus aureus, penicillin-resistant S. aureus, 5 strains. On the procedure: as §1
GpIb: PCresistant S. aureus

Test [2] relates to Cephalothin (CET)sensitive E. coli(2), Kl. pneumoniae(1) and Pr. mirabilis(2). Kind of test: MIC, two-fold serial agar dilution, Mueller-Hinton agar (geometric mean, group Gn-Ia). It is filed as cell-based. The note with it: 5 strains. On the procedure: as §1
GnIa: Cephalothin (CET)sensitive E. coli(2)*, Kl. pneumoniae(1) and Pr.

The subject of test [3] is CETresistant E. coli(3), and Kl. pneumoniae(2). Kind of test: MIC, two-fold serial agar dilution, Mueller-Hinton agar (geometric mean, group Gn-Ib). Type of test: cell-based. The note with it: Escherichia coli, read-out: Geometric Mean of MIC, Gn-Ib. On the procedure: as §1
GnIb: CETresistant E. coli(3), and Kl. pneumoniae(2)

For test [4], the system named is M. morganii(1), Ent. cloacae(2), and Ser. marcescens(2). The test is described as follows: MIC, two-fold serial agar dilution, Mueller-Hinton agar (geometric mean, group Gn-II). It is filed as cell-based. The settings on record: 5 strains. The procedure: as §1
GnII: M. morganii(1), Ent. cloacae(2), and Ser. marcescens(2)

The test system of another test is Ps. aeruginosa (7). Kind of test: MIC, two-fold serial agar dilution, Mueller-Hinton agar (geometric mean, group Gn-III). The note with it: Pseudomonas aeruginosa, 7 strains. Type of test: cell-based. The procedure: as §1
GnIII: Ps. aeruginosa (7)

For the next test, the system named is B. fragilis A 22693. The test is described as follows: In vitro activity against anaerobes (MIC), two-fold serial agar dilution, GAM agar. It is filed as cell-based. The settings on record: Bacteroides fragilis, A22693, Gn, Beta-Lactamase(-).
The next test deals with B. fragilis A 22053. Described as above. The settings on record: Bacteroides fragilis, A22053, Gn, Beta-Lactamase(-). Type of test: cell-based.
The test system of the next test is B. fragilis A 22021. The description is as above. Type of test: cell-based. The note with it: Bacteroides fragilis, A22021, Gn, Beta-Lactamase(-).
A further test relates to B. fragilis A 21916. Described as above. The settings on record: Bacteroides fragilis, A21916, Gn, Beta-Lactamase(-). It is filed as cell-based.
For a further test, the system named is B. fragilis A 22534. The test is described as above. It is filed as cell-based. The settings on record: Bacteroides fragilis, A22534, Gn, Beta-Lactamase(+).
For the next test, the system named is B. fragilis A 22695. Described as above. It is filed as cell-based. The settings on record: Bacteroides fragilis, A22695, Gn, Beta-Lactamase(+).
The next test deals with B. fragilis A 22533. The description is as above. Type of test: cell-based. The note with it: Bacteroides fragilis, A22533, Gn, Beta-Lactamase(+).
A further test concerns B. fragilis CUH-108. The test is described as above. It is filed as cell-based. The note with it: Bacteroides fragilis, CUH108, Gn, Beta-Lactamase(+), Clindamycin-resistant. On the procedure: In vitro activity against anaerobic bacteria was determined on eight strains of B. fragilis by two-fold serial agar dilution method in GAM agar.
The next test has as its system C. difficile A 21675. Kind of test: In vitro activity against anaerobes (MIC). The settings on record: Clostridioides difficile, A21675, Gp, Clindamycin-resistant. Type of test: cell-based.
The test system of the next test is C. perfringens A9635. Kind of test: microbe, parasite or virus in culture. Type of test: cell-based. The note with it: Clostridium perfringens.
The next test relates to P. acnes A 21933. The test is described as follows: In vitro activity against anaerobes (MIC). Type of test: cell-based. The settings on record: Cutibacterium acnes, A21933, Gp.
Test [5] relates to E. coli Juhl. The test is described as follows: MIC against the infecting organism (Table 2). The settings on record: Escherichia coli.
The test system of a further test is P. aeruginosa 9843A. The test is described as follows: MIC against the infecting organism (Table 2). The settings on record: Pseudomonas aeruginosa.
Test [6] concerns S. aureus Smith. The settings on record: Staphylococcus aureus, in Mus musculus, im, read-out: PD50.
Test [7] deals with E. coli Juhl. The settings on record: Escherichia coli, in Mus musculus, im, read-out: PD50.
Test [8] concerns S. aureus Smith. Kind of test: MIC against the infecting organism (Table 2). The note with it: Staphylococcus aureus.

With `CO/N=C(\C(=O)NC1C(=O)N2C(C(=O)O)=C(/C=C/COC(=O)c3ccc(O)c(O)c3)CS[C@H]12)c1nsc(N)n1` (stereo partly drawn) [Ib, 7-[(Z)-2-(5-Amino-1,2,4-thiadiazol-3-yl)-2-methoxyiminoacetamido]-3-[(E)-3-(3,4-dihydroxybenzoyloxy)-1-propen-1-yl]-3-cephem-4carboxylic acid], the MIC in [1] stood at 3.4 mg/L (≈ 5.9 µM); in the test with PCresistant S. aureus, 3.1 mg/L (≈ 5.38 µM); in test [2] it was 0.022 mg/L (≈ 0.0382 µM); in [3] it was 0.026 mg/L (≈ 0.0451 µM); in test [4] it was 0.53 mg/L (≈ 0.919 µM); against Ps. aeruginosa (7) it was 0.49 mg/L (≈ 0.85 µM). For the same molecule, the MIC is 3.1 mg/L (≈ 5.38 µM) in the test on B. fragilis A 22693; 3.1 mg/L (≈ 5.38 µM) against B. fragilis A 22053; 0.2 mg/L (≈ 0.347 µM) in the test with B. fragilis A 22021; 12.5 mg/L (≈ 21.7 µM) against B. fragilis A 21916; above 50 mg/L against B. fragilis A 22534; 25 mg/L (≈ 43.4 µM) against B. fragilis A 22695. Besides, the MIC was above 50 mg/L against B. fragilis A 22533; above 50 mg/L in the test on B. fragilis CUH-108; 25 mg/L (≈ 43.4 µM) with C. difficile A 21675; 0.4 mg/L (≈ 0.694 µM) in the test with C. perfringens A9635; 0.8 mg/L (≈ 1.39 µM) with P. acnes A 21933; 0.1 mg/L (≈ 0.173 µM) in the test on E. coli Juhl [5]. For the same molecule, the MIC against P. aeruginosa 9843A is 0.4 mg/L (≈ 0.694 µM). In addition, the values for the ED50 in the test on S. aureus Smith [6] and in the test on E. coli Juhl [7] were 0.68 mg/kg and 0.037 mg/kg, respectively.

Regarding `CC(C)(O/N=C(\C(=O)NC1C(=O)N2C(C(=O)O)=C(/C=C/COC(=O)c3ccc(O)c(O)c3)CS[C@H]12)c1csc(N)n1)C(=O)O` (stereo partly drawn) [Ic, 7-[(Z)-2-(2-Aminothiazol-4-yl)-2-(1-carboxy-1-methylethoxyimino)acetamido]-3-[(E)-3-(3,4-dihydroxybenzoyloxy)-1-propen-1yl]-3-cephem-4-carboxylic acid], the MIC in test [1] amounted to 8.3 mg/L (≈ 12.8 µM); against PCresistant S. aureus, 13 mg/L (≈ 20.1 µM); in test [2], 0.022 mg/L (≈ 0.034 µM); in test [3], 0.019 mg/L (≈ 0.0293 µM); in [4] it was 0.17 mg/L (≈ 0.262 µM); in the test with Ps. aeruginosa (7), 0.82 mg/L (≈ 1.27 µM). Besides, the MIC is 3.1 mg/L (≈ 4.79 µM) against B. fragilis A 22693; 0.8 mg/L (≈ 1.24 µM) against B. fragilis A 22053; 0.2 mg/L (≈ 0.309 µM) in the test with B. fragilis A 22021; 0.8 mg/L (≈ 1.24 µM) with B. fragilis A 21916; above 100 mg/L in the test on B. fragilis A 22534; 3.1 mg/L (≈ 4.79 µM) against B. fragilis A 22695. Further, the MIC was above 100 mg/L against B. fragilis A 22533; 12.5 mg/L (≈ 19.3 µM) against B. fragilis CUH-108; 50 mg/L (≈ 77.2 µM) with C. difficile A 21675; 0.4 mg/L (≈ 0.618 µM) with C. perfringens A9635; 0.8 mg/L (≈ 1.24 µM) in the test with P. acnes A 21933; 12.5 mg/L (≈ 19.3 µM) against S. aureus Smith [8]. Further, the MIC against E. coli Juhl [5] and in the test with P. aeruginosa 9843A was 0.2 mg/L (≈ 0.309 µM) throughout. The ED50 in the test on S. aureus Smith [6] was 2.2 mg/kg; with E. coli Juhl [7] it was 0.062 mg/kg.

Consider `CO/N=C(\C(=O)NC1C(=O)N2C(C(=O)O)=C(/C=C/COC(=O)Nc3ccc(O)c(O)c3)CSC12)c1csc(N)n1` (stereo not drawn) [Ie, 7-[(Z)-2-(2-Aminothiazol-4-yl)-2-methoxyiminoacetamido]-3-[(E)-3-(N-3,4-dihyroxyphenyl)carbamoyloxy-1-propen-1-yl]-3-cephem-4-carboxylic acid], for which the MIC in test [1] came out at 6.3 mg/L (≈ 10.7 µM); against PCresistant S. aureus, 7.2 mg/L (≈ 12.2 µM); in test [2], 0.23 mg/L (≈ 0.389 µM); in test [3] it was 0.46 mg/L (≈ 0.779 µM); in [4] it was 3.6 mg/L (≈ 6.1 µM); against Ps. aeruginosa (7), 50 mg/L (≈ 84.7 µM). The MIC with B. fragilis A 22693 was 3.1 mg/L (≈ 5.25 µM); in the test with B. fragilis A 22053 it was 3.1 mg/L (≈ 5.25 µM); against B. fragilis A 22021, 0.4 mg/L (≈ 0.677 µM); against B. fragilis A 21916, 6.3 mg/L (≈ 10.7 µM); in the test on B. fragilis A 22534 it was above 100 mg/L; against B. fragilis A 22695, 25 mg/L (≈ 42.3 µM). Further, the MIC against B. fragilis A 22533 was above 100 mg/L; against B. fragilis CUH-108 it was 100 mg/L (≈ 169 µM); with C. difficile A 21675, 50 mg/L (≈ 84.7 µM); against C. perfringens A9635, 1.6 mg/L (≈ 2.71 µM); in the test on P. acnes A 21933, 1.6 mg/L (≈ 2.71 µM).
